The source of these data is patent US20230405002A1, “COMBINATIONS OF DIACYLGLYCEROL ACYLTRANSFERASE 2 INHIBITORS AND ACETYL-COA CARBOXYLASE INHIBITOR” (Pfizer Inc., priority 2020, published 2023).

Series [1] addresses human DGAT2 (hDGAT2) (Homo sapiens (Human), UniProt Q96PD7). Nature of the series: In vitro DGAT2 assay, determination of IC50 values. Format: biochemical. The settings on record: geometric mean; hDGAT2 membrane fraction.
The test system of series [2] is human liver microsomes. The series is described as follows: Intrinsic clearance in human liver microsomes. The settings on record: human liver microsome assay, 1 μM. For orientation: Microsomes from liver hold many membrane-bound enzymes, among them those of drug oxidation.
Method: The high throughput human microsomal stability assay was performed in a 384-well format (Di, L., et al. 2012, Eur. J. Med. Chem., 57, 441-448). All liquid handling and incubation were conducted with a Biomek FX (Beckman Coulter, Inc., Indianapolis, IN), equipped with one 3-position Mecour heated deck positions. Pooled human liver microsomes of 50 donors (Lot: HLM-103) were purchased from BD Biosciences (Bedford, MA). Each incubation contained test compound (1 μM), human liver microsomes (0.25 μM CYP protein equivalent to 0.806 mg/mL protein concentration), NADPH 20.9 mM, MgCl2 (3.3 mM) and potassium phosphate buffer (100 mM at pH 7.4). The final reaction volume was 45 μL containing 0.1% DMSO. The incubations were conducted at 37° C. At various time points (e.g. 1, 4, 7, 12, 20, 25, 45 and 60 min), cold acetonitrile with mass spectrometry (MS) internal standard (Example 39A, WO1999/57125) was added to quench the reaction. The plates were centrifuged at 3000 rpm for 1 min at 4° C. […] The plates were sealed and subsequently analyzed using LC-MS/MS. Control plates were prepared in the same manner without adding the NADPH cofactor to monitor any non-CYP/FMO catalyzed decline. […] The data are presented as the mean+/− standard deviation, with the number of replicates (n) shown.
Series [3] is described as follows: Determination of pKa (capillary electrophoresis). The settings on record: most basic pKa, mean.
For series [4], the system named is human hepatocytes. The series is described as follows: High throughput intrinsic clearance in human hepatocytes. The settings on record: high throughput human hepatocyte assay, 1 μM.
Method: The high throughput human hepatocyte stability assay was performed in a 384-well format (Di, L., et al. 2012, Eur. J. Med. Chem., 57, 441-448). Pooled cryopreserved human hepatocytes of 10 donors were purchased from BioreclamationlVT (Baltimore, MD, Lot DCM). The cryopreserved human hepatocytes were thawed, and re-suspended in Williams E medium (WEM GIBCO, custom formula #A28859EA) supplemented with HEPES and Na2CO3. The cells were counted using the Trypan Blue exclusion method. The Multidrop® liquid dispenser (Multidrop DW, Thermo Scientific, Waltham, MA) was used to add the hepatocyte suspensions to the 384-well plates. The cell plates were covered and transferred to a Sciclone® ALH 3000 workstation (Caliper Life Sciences, Hopkinton, MA), equipped with two 6-position Mecour heat exchangers. Test compounds were diluted on the Sciclone® with buffer and added to the hepatocytes. The final incubation contained 0.5 million cells/mL and 1 μM test compound in 15 μL total volume with 0.01% DMSO. The incubation was carried out at 37° C. At various time points (0, 3, 10, 30, 60, 120, 240 min), the reactions were quenched with cold acetonitrile containing internal standard (Example 39A, WO1999/57125). The samples were centrifuged (Eppendorf, Hauppauge, NY) at 3000 rpm for 5 min at 4° C. The supernatants were transferred using the BioMek® FX liquid handler (Beckman Coulter, Inc. Danvers MA) to new plates with water addition, which were sealed prior to LC-MS/MS analysis. […] The data are presented as the mean+/− standard deviation, with the number of replicates (n) shown.
For series [5], the target named is DGAT2 in human hepatocytes (Homo sapiens (Human), UniProt Q96PD7). Nature of the series: Determination of IC50 values for DGAT2 inhibitors in human hepatocytes. It counts as cell-based. The settings on record: geometric mean; cryopreserved human hepatocytes, DGAT1 inhibitor 3 μM present. The procedure:
For evaluation of the effects of DGAT2 inhibitors in a cell-based setting, cryopreserved human hepatocytes (Lot DOO, Celsis, Baltimore, MD) were thawed and plated onto type I collagen-coated plates according to the manufacturer's instructions. After 18 hours overnight recovery period, the cells were overlayed with media containing 250 μg/mL Geltrex Basement Membrane Matrix (Thermo Fisher). The following day, media was aspirated and replaced with serum-free Williams Media E (Thermo Fisher) containing 400 μM sodium dodecanoate (Sigma-Aldrich, St. Louis, MO) and 2 mM GlutaMAX (Thermo Fisher). […] DGAT2 inhibitors were then added to the desired final concentration. After a 15 minute preincubation, 0.2 μCi [^14C(U)]-glycerol (Perkin Elmer) was added to each well followed by a 3 hour incubation. At this point the media was removed, and the cells lysed via orbital shaking in isopropyl alcohol: tetrahydrofuran (9:1) for 15 minutes prior to centrifugation at 3000 rpm for 10 minutes. Radiolabeled lipids were resolved using a solvent system by thin layer chromatography with the solvent consisting of hexanes: diethyl ether: glacial acetic acid (75:23:2, v/v/v). After separation, radiolabeled lipids were visualized using the Typhoon 9500 phosphorimaging system (GE). The half maximal inhibitory concentrations (IC50 values) were determined by nonlinear regression analysis of the % inhibition dose response curve using GraphPad Prism (GraphPad Software, Inc., La Jolla, CA).
Table 12 below provides the IC50 values of selected Examples for inhibition of DGAT2 in human hepatocytes in accordance with the above-described assay. Results are reported as geometric mean IC50 values, with the number of replicates (n) shown.

One may read the IC50 as the concentration that gives 50% inhibition. Read a high IC50 as lower potency.

Counter-ions that a name gives are not always drawn.

Chain of human DGAT2 (hDGAT2) (Q96PD7 whole entry): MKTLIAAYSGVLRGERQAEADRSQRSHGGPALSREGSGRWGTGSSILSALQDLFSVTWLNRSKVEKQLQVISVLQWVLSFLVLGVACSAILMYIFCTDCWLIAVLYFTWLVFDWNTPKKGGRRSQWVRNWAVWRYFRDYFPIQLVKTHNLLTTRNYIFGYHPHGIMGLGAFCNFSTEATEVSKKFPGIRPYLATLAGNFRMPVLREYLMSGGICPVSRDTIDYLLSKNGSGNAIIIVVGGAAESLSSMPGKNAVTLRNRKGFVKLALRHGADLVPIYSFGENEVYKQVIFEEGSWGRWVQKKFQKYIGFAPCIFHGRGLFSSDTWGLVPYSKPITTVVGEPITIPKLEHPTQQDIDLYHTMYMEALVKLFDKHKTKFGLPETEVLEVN
Chain of DGAT2 in human hepatocytes (Q96PD7 whole entry): as above

In turn, `CCOc1cccnc1Oc1cncc(-c2ncc(C(=O)N[C@@H]3CNCC[C@H]3F)cn2)c1` [Example 5, 2-{5-[(3-Ethoxypyridin-2-yl)oxy]pyridin-3-yl}-N-[(3R,4R)-4-fluoropiperidin-3-yl]pyrimidine-5-carboxamide] returned an IC50 in series [1] of 0.11 µM. For the same molecule, the “CLint (+/− STD Dev)” value in series [2] is <7 µL/min/mg.
Take `CCOc1cccnc1Oc1cncc(-c2ncc(C(=O)N[C@@H]3CNCC(F)(F)C3)cn2)c1` (single isomer, unassigned) [Example 19, N-[(3S)-5,5-difluoropiperidin-3-yl]-2-{5-[(3-ethoxypyridin-2-yl)oxy]pyridin-3-yl}pyrimidine-5-carboxamide or N-[(3R)-5,5-difluoropiperidin-3-yl]-2-{5-[(3-ethoxypyridin-2-yl)oxy]pyridin-3-yl}pyrimidine-5-carboxamide]: in series [3], the “Basic pKa” value was found to be 5.2. Moreover, the midpoint of inhibition in series [1], the IC50, lay at 0.24 µM. The “CLint (+/− Std Dev)” value in series [4] is 14 +/− 1.4 μL/min/10^6 cells. Moreover, the “CLint (+/− STD Dev)” value in series [2] was 34 ± 1.9 µL/min/mg.
In series [1], `CCOc1cccnc1Oc1cncc(-c2ncc(C(=O)N[C@H]3CNCC[C@@H]3F)cn2)c1` [Example 12, 2-{5-[(3-ethoxypyridin-2-yl)oxy]pyridin-3-yl}-N-[(3S,4S)-4-fluoropiperidin-3-yl]pyrimidine-5-carboxamide, trifluoroacetate salt] displayed an IC50 of 0.59 µM. Besides, in series [2], the “CLint (+/− STD Dev)” value was <7 µL/min/mg.
Consider `CCOc1cccnc1Oc1cncc(-c2ncc(C(=O)N[C@H]3CC[C@H](C(F)(F)F)NC3)cn2)c1` (racemic) [Example 8, rac-2-{5-[(3-ethoxypyridin-2-yl)oxy]pyridin-3-yl}-N-[(3R,6S)-6-(trifluoromethyl)piperidin-3-yl]pyrimidine-5-carboxamide or rac-2-{5-[(3-ethoxypyridin-2-yl)oxy]pyridin-3-yl}-N-[(3R,6R)-6-(trifluoromethyl)piperidin-3-yl]pyrimidine-5-carboxamide], for which the “Basic pKa” value in series [3] was determined as 5.3.
With `CCOc1cc(F)cnc1Oc1cncc(-c2ncc(C(=O)N[C@@H]3CNCC[C@H]3F)cn2)c1` [Example 6, 2-{5-[(3-Ethoxy-5-fluoropyridin-2-yl)oxy]pyridin-3-yl}-N-[(3R,4R)-4-fluoropiperidin-3-yl]pyrimidine-5-carboxamide], the IC50 in series [1] is 0.08 µM; in series [5] it was 0.0024 µM.
Regarding `CCOc1cccnc1Oc1cncc(-c2ncc(C(=O)NC3CNCC(F)(F)C3)cn2)c1` (stereo not shown) [Example 17, N-(5,5-difluoropiperidin-3-yl)-2-{5-[(3-ethoxypyridin-2-yl)oxy]pyridin-3-yl}pyrimidine-5-carboxamide], half-maximal inhibition in series [1] (IC50) required 0.23 µM.
In the case of `CCOc1cc(F)cnc1Oc1cncc(-c2ncc(C(=O)N[C@H]3CNCC[C@@H]3F)cn2)c1` [Example 13, 2-{5-[(3-ethoxy-5-fluoropyridin-2-yl)oxy]pyridin-3-yl}-N-[(3S,4S)-4-fluoropiperidin-3-yl]pyrimidine-5-carboxamide, formate salt], the results for the IC50 in series [1] and in series [5] were 0.057 µM and 0.0038 µM, respectively.
Molecule `CCOc1cccnc1Oc1cncc(-c2ncc(C(=O)N[C@H]3CNCCC3(F)F)cn2)c1` (single isomer, unassigned) [Example 15, N-[(3S)-4,4-difluoropiperidin-3-yl]-2-{5-[(3-ethoxypyridin-2-yl)oxy]pyridin-3-yl}pyrimidine-5-carboxamide, trifluoroacetate salt or N-[(3R)-4,4-difluoropiperidin-3-yl]-2-{5-[(3-ethoxypyridin-2-yl)oxy]pyridin-3-yl}pyrimidine-5-carboxamide, trifluoroacetate salt] showed an IC50 in series [1] of 3.3 µM.
The same measure, in the same setting: as for `CCOc1cccnc1Oc1cncc(-c2ncc(C(=O)NC3CCCNC3C)cn2)c1` (mixture of isomers) [Example 23, 2-{5-[(3-ethoxypyridin-2-yl)oxy]pyridin-3-yl}-N-(2-methylpiperidin-3-yl)pyrimidine-5-carboxamide, trifluoroacetate salt, mixture of stereoisomers], the figure is 14 µM; as for `CCOc1cccnc1Oc1cncc(-c2ncc(C(=O)N[C@H]3CNC[C@H](F)C3)cn2)c1` [Example 7, 2-{5-[(3-ethoxypyridin-2-yl)oxy]pyridin-3-yl}-N-[(3R,5R)-5-fluoropiperidin-3-yl]pyrimidine-5-carboxamide, trifluoroacetate salt], 0.042 µM.
As for `CCOc1cccnc1Oc1cncc(-c2ncc(C(=O)NC3CCC(C(F)(F)F)NC3)cn2)c1` (single isomer, unassigned; ent-1) [Example 10, 2-{5-[(3-ethoxypyridin-2-yl)oxy]pyridin-3-yl}-N-[6-(trifluoromethyl)piperidin-3-yl]pyrimidine-5-carboxamide, trifluoroacetate salt, ENT-1], in series [3], the “Basic pKa” value is on record as 4.7. In addition, the IC50 in series [1] came out at 0.039 µM.
`CCOc1cccnc1Oc1cncc(-c2ncc(C(=O)NC3CCC(C(F)(F)F)NC3)cn2)c1` (single isomer, unassigned; ent-2) [Example 11, 2-{5-[(3-ethoxypyridin-2-yl)oxy]pyridin-3-yl}-N-[6-(trifluoromethyl)piperidin-3-yl]pyrimidine-5-carboxamide, trifluoroacetate salt, ENT-2] returned an IC50 in series [1] of 0.0044 µM. In addition, in series [4], the “CLint (+/− Std Dev)” value is listed as 38 +/− 2.0 μL/min/10^6 cells. For the same molecule, the “CLint (+/− STD Dev)” value in series [2] is >290 µL/min/mg.
As for `CCOc1cc(F)cnc1Oc1cncc(-c2ncc(C(=O)N[C@@H]3CNCC[C@@H]3F)cn2)c1.O=C(O)C(F)(F)F.O=C(O)C(F)(F)F` [Example 1, 2-{5-[(3-Ethoxy-5-fluoropyridin-2-yl)oxy]pyridin-3-yl}-N-[(3R,4S)-4-fluoropiperidin-3-yl]pyrimidine-5-carboxamide, bis(trifluoroacetate) salt], the “Basic pKa” value in series [3] was 7.7. In series [1], this molecule yielded an IC50 of 0.0058 µM. Also, in series [4], the “CLint (+/− Std Dev)” value is given as <2.7 +/− 0.72 μL/min/10^6 cells. For the same molecule, in series [2], the “CLint (+/− STD Dev)” value is <7 µL/min/mg.
As to `CCOc1cccnc1Oc1cncc(-c2ncc(C(=O)N[C@H]3CNCCC3(F)F)cn2)c1` (single isomer, unassigned) [Example 16, N-[(3S)-4,4-difluoropiperidin-3-yl]-2-{5-[(3-ethoxypyridin-2-yl)oxy]pyridin-3-yl}pyrimidine-5-carboxamide, trifluoroacetate salt or N-[(3R)-4,4-difluoropiperidin-3-yl]-2-{5-[(3-ethoxypyridin-2-yl)oxy]pyridin-3-yl}pyrimidine-5-carboxamide, trifluoroacetate salt], the “CLint (+/− Std Dev)” value in series [4] (trifluoroacetate salt) is recorded as 4.7 +/− 1.4 μL/min/10^6 cells. In addition, the “CLint (+/− STD Dev)” value in series [2] (trifluoroacetate salt) is 17 µL/min/mg.
Molecule `CCOc1cccnc1Oc1cncc(-c2ncc(C(=O)N[C@H]3CNCC[C@H]3C)cn2)c1` (racemic) [Example 20, rac-2-{5-[(3-ethoxypyridin-2-yl)oxy]pyridin-3-yl}-N-[(3R,4R)-4-methylpiperidin-3-yl]pyrimidine-5-carboxamide, trifluoroacetate salt] registered an IC50 in series [1] of 2.1 µM.
With `CCOc1cccnc1Oc1cncc(-c2ncc(C(=O)N[C@@H]3CNCC(F)(F)C3)cn2)c1` (single isomer, unassigned) [Example 18, N-[(3S)-5,5-difluoropiperidin-3-yl]-2-{5-[(3-ethoxypyridin-2-yl)oxy]pyridin-3-yl}pyrimidine-5-carboxamide or N-[(3R)-5,5-difluoropiperidin-3-yl]-2-{5-[(3-ethoxypyridin-2-yl)oxy]pyridin-3-yl}pyrimidine-5-carboxamide], the IC50 is 0.14 µM in series [1] and 0.02 µM in series [5].
Turning to `CCOc1cccnc1Oc1cncc(-c2ncc(C(=O)N[C@H]3CC[C@H](C(F)(F)F)NC3)cn2)c1` (racemic) [Example 9, rac-2-{5-[(3-ethoxypyridin-2-yl)oxy]pyridin-3-yl}-N-[(3R,6S)-6-(trifluoromethyl)piperidin-3-yl]pyrimidine-5-carboxamide or rac-2-{5-[(3-ethoxypyridin-2-yl)oxy]pyridin-3-yl}-N-[(3R,6R)-6-(trifluoromethyl)piperidin-3-yl]pyrimidine-5-carboxamide], the “CLint (+/− STD Dev)” value in series [2] was >290 µL/min/mg.
Turning to `CCOc1cc(F)cnc1Oc1cncc(-c2ncc(C(=O)N[C@@H]3CNC[C@@H](F)C3)cn2)c1` [Example 2, 2-{5-[(3-Ethoxy-5-fluoropyridin-2-yl)oxy]pyridin-3-yl}-N-[(3S,5S)-5-fluoropiperidin-3-yl]pyrimidine-5-carboxamide], the IC50 is 0.0086 µM in series [1] and 0.0041 µM in series [5].
